Experimental data as given in patent US10524455B2, “Methods and compositions for inducing hygienic behavior in honey bees” (University of North Carolina at Greensboro, priority 2015, dated 2020).

Assays:
[1] = system: honey bees (single VSH colony); test: Induced hygienic behavior study with synthesized P32 applied to cell caps by airbrushing; type: in vivo, honey bee; details: for dose dependence of removal: concentrations 1%, 0.3%, 0.1% by airbrushing; for removal of pupae in treated brood cells compared to all control brood cells: roughly 10 ul per cell by airbrushing, 24 hours, controls: (Z)-16-dotriacontene at any concentration, hexane, no treatment
Experimental: Methods: The dose dependent removal effects of (Z)-10-tritriacontene and (Z)-16-dotriacontene applied to wax caps of honey bee brood cells were measured repeatedly in a single VSH colony. (Z)-10-tritriacontene, along with (Z)-16-dotriacontene and hexane controls were applied to capped honey bee brood cells using a Paasche H-100D Single Action Airbrush & Compressor system, operating at 25 PSI. To control the amount of brood cells exposed to each chemical treatment (and thus the dose per cell) 3″ diameter PVC pipe pieces were inserted into a brood frames containing capped pupae. Thus, for each treatment and replicate, 2 mL of solution was applied to a single 3″-diameter section of brood comb by airbrushing. Since there are roughly 200 cells per 3″ diameter circle, this is roughly 10 ul solution per cell. Concentrations of 1%, 0.3%, and 0.1% (Z)-10-tritriacontene and (Z)-16-dotriacontene were tested. Sample sizes for (Z)-10-tritriacontene were 532, 420, and 282 cells for concentrations of 1%, 0.3%, and 0.1%, respectively. Sample sizes for (Z)-16-dotriacontene were 289, 296, and 311 for concentrations of 1%, 0.3%, and 0.1%, respectively. Sample sizes for the hexane control and no treatment control were 425 and 154, respectively. The location of all assays on frames was randomized. The frequency of uncapping and removal was recorded at four hours and twenty-four hours post treatment. Chi-square analysis with Bonferroni correction was used to compare hygienic removal and uncapping between treatments.

[2] = system: honey bees (MH and control colonies); test: Induced hygienic behavior study with synthesized P32 applied to cell caps by syringe; type: in vivo, honey bee; details: results discarded by the patent for methodological issues
Experimental: Methods: The pure P32 compound will be aliquoted and diluted in hexane. 1 ul of different dilutions will be applied onto larvae and/or caps of individual brood cells in three experimental hives. The VSH, MH, and control genotype (together, hereinafter, referred to as “line”) will be tested for their response. Hives from each source will be set up in an experimental apiary and standardized in size, brood, and resources. Brood frames containing uncapped 5th larval instars will be collected from each hive, and the location of the uncapped cells will be marked using a plastic transparency. Frames will be replaced into the hives, and cells that are capped within the next 16 hours will be recorded and used for the experiment. At day 4 post-capping, cells will be treated with hexane (a negative control) or one of the following dilutions of pure P32: 10^−1, 10^−3, 10^−5, 10^−7, 10^−9, 10^−11. Pin-killed brood will be used as a positive control. Twenty cells will receive each treatment in each colony for a total sample size of 1440 (20 cells×8 treatments×3 replicate hives×3 genotypes). Treatments will be randomly distributed across experimental combs and the location of each treatment recorded on a clear transparent sheet put over the comb. […] A new method for application of chemicals by airbrushing was also utilized to increase speed and quantity in chemical application (FIG. 12).

Compound	dose dependence of removal [1]	removal of treated cells compared to hexane treated cells ([2]; MH colonies (both tested))	removal of treated cells compared to hexane treated cells ([2]; control colonies)	removal of pupae in treated brood cells compared to all control brood cells ([1]; 0.3% in hexane)	removal of pupae in treated brood cells compared to all control brood cells ([1]; 1% in hexane)
CCCCCCCCCCCCCCC/C=C\CCCCCCCCCCCCCCC [(Z)-16-dotriacontene, reference compound]	removed in a dose-dependent manner	–	–	–	–
CCCCCCCCC/C=C\CCCCCCCCCCCCCCCCCCCCCC [(Z)-10-tritriacontene]	removed in a dose-dependent manner	significantly higher removal	no significant difference	significantly greater	significantly greater
